Data reported in US10155021B2, “Antimicrobial 4-oxoquinolizines” (Emergent Product Development Gaithersburg Inc., priority 2011, dated 2018).
Converted amounts (≈) assume the structure as drawn. Read-outs that look alike come from different tables or passages of the source.

Columns and labels:
[1] = system: B. thailandensis E264; assay: microbe, parasite or virus in culture; format: cell-based, Burkholderia thailandensis; conditions: Burkholderia thailandensis, E264, read-out: MIC B. thailandensis E264
[2] = system: E. coli ATCC 25922; assay: MIC, selected panel of Gram-positive and Gram-negative strains (Example 5); format: cell-based, Escherichia coli
[3] = system: P. aeruginosa ATCC 27853; assay: as above; format: cell-based
[4] = system: A. baumannii ATCC 19606; assay: as above; format: cell-based, Acinetobacter baumannii
[5] = system: S. aureus ATCC 25923; assay: as above; format: cell-based
[6] = system: S. aureus ATCC 43300 (MRSA, FQ-S); assay: as above; format: cell-based, Staphylococcus aureus
[7] = system: S. aureus BAA-1556 (USA300-Type MRSA, FQ-R); assay: as above; format: cell-based, Staphylococcus aureus
[8] = Escherichia coli, ATCC25922; read-out: MIC E. coli ATCC 25922
[9] = Pseudomonas aeruginosa, ATCC27853; read-out: MIC P. aeruginosa ATCC 27853
[10] = Acinetobacter baumannii, ATCC19606; read-out: MIC A. baumannii ATCC 19606
[11] = Staphylococcus aureus, ATCC25923; read-out: MIC S. aureus ATCC 25923
[12] = Staphylococcus aureus; read-out: MIC S. aureus ATCC 43300 (MRSA, FQ-S)
[13] = Staphylococcus aureus; read-out: MIC S. aureus BAA-1556 (USA300-Type MRSA, FQ-R)
[14] = Escherichia coli, ATCC25922, read-out: MIC E. coli ATCC 25922
[15] = Pseudomonas aeruginosa, ATCC27853, read-out: MIC P. aeruginosa ATCC 27853
[16] = Acinetobacter baumannii, ATCC19606, read-out: MIC A. baumannii ATCC 19606
[17] = Staphylococcus aureus, ATCC25923, read-out: MIC S. aureus ATCC 25923
[18] = Staphylococcus aureus, read-out: MIC S. aureus ATCC 43300 (MRSA, FQ-S)
[19] = Staphylococcus aureus, read-out: MIC S. aureus BAA-1556 (USA300-Type MRSA, FQ-R)

SMILES | MIC [1] | MIC [2, 8] | MIC [3, 9] | MIC [4, 10] | MIC [5, 11] | MIC [6, 12] | MIC [7, 13] | MIC [2, 14] | MIC [3, 15] | MIC [4, 16] | MIC [5, 17] | MIC [6, 18] | MIC [7, 19]
Cc1c(-c2cnc(N)nc2)ccn2c(=O)c(C(=O)O)cc(C3CC3)c12 [Compound 57, 8-(2-aminopyrimidin-5-yl)-1-cyclopropyl-9-methyl-4-oxo-quinolizine-3-carboxylic acid] | > 8 µg/mL | 1 µg/mL (≈ 2.97 µM) | > 8 µg/mL | 8 µg/mL (≈ 23.8 µM) | 0.25 to 0.5 µg/mL (≈ 0.743 to 1.49 µM) | 0.25 µg/mL (≈ 0.743 µM) | 8 µg/mL (≈ 23.8 µM) |  |  |  |  |  | 
Cc1c(-c2ccc3[nH]ncc3c2)c(F)cn2c(=O)c(C(=O)[O-])cc(C3CC3)c12.[K+] [Compound 75K salt, potassium 8-(1H-indazol-5-yl)-1-cyclopropyl-7-fluoro-9-methyl-4-oxo-4H-quinolizine-3-carboxylate] | 0.25 µg/mL |  |  |  |  |  |  | 0.032 µg/mL | 1 µg/mL | 0.064 µg/mL | ≤ 0.004 µg/mL | ≤ 0.004 µg/mL | 0.032 µg/mL
Cc1c(-c2ccncc2)c(F)cn2c(=O)c(C(=O)[O-])cc(C3CC3)c12.[K+] [Compound 59K salt, potassium 8-(pyridin-4-yl)-1-cyclopropyl-7-fluoro-9-methyl-4-oxo-4H-quinolizine-3-carboxylate] | 0.5 µg/mL |  |  |  |  |  |  | 0.064 µg/mL | 4 µg/mL | 0.25 µg/mL | 0.032 µg/mL | 0.016 µg/mL | 0.5 µg/mL
Cc1c(-c2ccncc2F)ccn2c(=O)c(C(=O)[O-])cc(C3CC3)c12.[K+] [Compound 58K salt, potassium 8-(3-fluoropyridin-4-yl)-1-cyclopropyl-9-methyl-4-oxo-4H-quinolizine-3-carboxylate] | 1 µg/mL |  |  |  |  |  |  | 0.25 µg/mL | > 8 µg/mL | 1 µg/mL | 0.064 µg/mL | 0.064 µg/mL | 1 to 2 µg/mL
Cc1c(-c2ccc3c(c2)C(=O)NC3)ccn2c(=O)c(C(=O)[O-])cc(C3CC3)c12.[K+] [Compound 68K salt, potassium 8-(3-oxoisoindolin-5-yl)-1-cyclopropyl-9-methyl-4-oxo-4H-quinolizine-3-carboxylate] | 1 µg/mL |  |  |  |  |  |  | 0.064 µg/mL | 2 µg/mL | 0.25 µg/mL | ≤ 0.004 µg/mL | ≤ 0.004 µg/mL | 0.25 µg/mL
Cc1c(-c2ccc3cn[nH]c3c2)ccn2c(=O)c(C(=O)[O-])cc(C3CC3)c12.[K+] [Compound 83K salt, potassium 8-(1H-indazol-6-yl)-1-cyclopropyl-9-methyl-4-oxo-4H-quinolizine-3-carboxylate] |  |  |  |  |  |  |  | 0.016 µg/mL | 0.5 µg/mL | 0.032 µg/mL | ≤ 0.004 µg/mL | ≤ 0.004 µg/mL | 0.064 µg/mL
Cc1c(-c2ccc(N)c(CN)c2)ccn2c(=O)c(C(=O)[O-])cc(C3CC3)c12.[K+] [Compound 76K salt, potassium 8-(4-amino-3-(aminomethyl)phenyl)-1-cyclopropyl-9-methyl-4-oxo-4H-quinolizine-3-carboxylate] | 2 µg/mL |  |  |  |  |  |  | 0.032 µg/mL | 1 µg/mL | 0.25 µg/mL | 0.016 µg/mL | 0.008 to 0.016 µg/mL | 0.25 µg/mL
Cc1c(-c2ccc3c(c2)NC(=O)C(N)C3)ccn2c(=O)c(C(=O)O)cc(C3CC3)c12 (stereo not shown) [Compound 54, 8-(3-amino-2-oxo-3,4-dihydro-1H-quinolin-7-yl)-1-cyclopropyl-9-methyl-4-oxo-quinolizine-3-carboxylic acid] | 4 µg/mL (≈ 9.91 µM) | 0.25 µg/mL (≈ 0.62 µM) | > 8 µg/mL | 4 µg/mL (≈ 9.91 µM) | 0.064 to 0.125 µg/mL (≈ 0.159 to 0.31 µM) | 0.064 µg/mL (≈ 0.159 µM) | 0.5 µg/mL (≈ 1.24 µM) |  |  |  |  |  | 
Cc1c(-c2ccc(N)nc2)c(F)cn2c(=O)c(C(=O)[O-])cc(C3CC3)c12.[K+] [Compound 60K salt, potassium 8-(6-aminopyridin-3-yl)-1-cyclopropyl-7-fluoro-9-methyl-4-oxo-4H-quinolizine-3-carboxylate] | 0.5 µg/mL |  |  |  |  |  |  | 0.032 µg/mL | 2 µg/mL | 0.064 µg/mL | 0.008 µg/mL |  | 0.125 µg/mL
